# Results taken from patent US8337900B2, “Reverse-phase microcapsules for active ingredients, simplified process of manufacture thereof and combined formulation WDG-CS, ZC, EC-SC, and CX” (priority 2006, dated 2012).
# Key:
# [1] = cited from earlier work
# [2] = Stability to hydrolysis versus commercial formulations; type: physicochemical; settings: in a CX, microencapsulated in NPμ and combined with sulfosate
# Text: This refers to the typical variations: thifensulfuron-ethyl<→thifensulfuron, etc.
# [3] = Accelerated heat stability test (54° C.), physical stability and chemical degradation by HPLC; type: physicochemical; settings: NPμ in a CX-w; results and process not shown
# Procedure: Both formulations were submitted to accelerated heat stability tests (at 54° C. for 2 weeks).
# Also, presence of unencapsulated material—water soluble a.i.—was below 0.1%.
# These tests were performed with HPLC and standard methods of analysis under Good Laboratory Practice conditions.
compound,measurement,setting,value
O=C(O)c1cc(Oc2ccc(C(F)(F)F)cc2Cl)ccc1[N+](=O)[O-] [acifluorfen-sodium],solubility in isooctanol,[1]; isooctanol,around 6 g/L
same,solubility in water,[1]; water,about 60 g/L
COc1cc(OC)nc(NC(=O)NS(=O)(=O)c2ncccc2C(=O)N(C)C)n1 [nicosulfuron],more stable to hydrolysis than current commercial formulations,[2],at least 20 % times
CC(C)(C)C(O)(CCc1ccc(Cl)cc1)Cn1cncn1 (centres unmarked) [tebuconazole],solubility in hexane,[1]; hexane,lower than 0.1 g/L
COC(=O)c1ccccc1S(=O)(=O)NC(=O)N(C)c1nc(C)nc(OC)n1 [tribenuron-methyl],degradation inhibition by microencapsulation,[3],equally observed
